“And” between values parts separate entries of the source, which are not always exact repeats. Identical values can stand only once.
How the values were obtained:
[1] = for vapor or sublimation pressure: Closed cell (Static) method; for Normal melting temperature: DTA
[2] = Molar enthalpy of transition or fusion; conditions: Crystal; DSC

Oc1ccc(Cl)cc1 [4-chlorophenol]
vapor or sublimation pressure [kPa], [1]
Conditions | Crystal | Liquid
273.48 K | – | 0.00084
273.5 K | 0.00039 | –
275.43 K | 0.00049 | –
275.44 K | – | 0.00104
277.42 K | 0.00063 | 0.00128
279.38 K | 0.00081 | 0.00158
281.38 K | 0.00103 | 0.00192
283.35 K | 0.0013 | –
283.37 K | – | 0.00234
285.33 K | – | 0.00286
285.35 K | 0.00166 | –
287.31 K | 0.00208 | –
287.32 K | – | 0.00345
289.31 K | 0.00262 | 0.00418
291.28 K | – | 0.00507
291.31 K | 0.00327 | –
293.28 K | 0.00406 | 0.00606
295.27 K | 0.00505 | –
295.32 K | – | 0.00733
297.25 K | – | 0.00872
297.26 K | 0.00624 | –
299.21 K | 0.00766 | –
299.23 K | – | 0.01048
301.2 K | – | 0.01241
301.23 K | 0.00951 | –
303.19 K | – | 0.01472
303.2 K | 0.01166 | –
305.18 K | 0.01436 | 0.01741
307.16 K | 0.01755 | –
307.18 K | – | 0.02059
309.14 K | 0.02132 | 0.02426
311.11 K | – | 0.02854
311.14 K | 0.02603 | –
313.12 K | – | 0.03332
315.06 K | – | 0.03907
317.07 K | – | 0.04539
319.03 K | – | 0.05279
321.14 K | – | 0.06178
323.09 K | – | 0.07108
325.09 K | – | 0.08208
327.04 K | – | 0.09417
329.04 K | – | 0.1088
331.02 K | – | 0.1249

Conditions | Normal melting temperature [°C]
[1], Crystal | 43.8

Conditions | Molar enthalpy of transition or fusion [kcal/mol]
[2] | 3.35

Oc1ccc(Br)cc1 [4-bromophenol]
vapor or sublimation pressure, [1]
Conditions | Crystal | Liquid
285.34 K | 0.00035 kPa | –
287.33 K | 0.00046 kPa | –
289.29 K | 0.00057 kPa | –
291.33 K | 0.00073 kPa | –
293.31 K | 0.00092 kPa | –
295.29 K | 0.00116 kPa | –
297.25 K | 0.00146 kPa | –
299.23 K | 0.00182 kPa | –
301.2 K | 0.00229 kPa | –
303.18 K | 0.00286 kPa | –
303.2 K | – | 0.00555 kPa
305.19 K | 0.00358 kPa | –
305.2 K | – | 0.00661 kPa
307.17 K | 0.00441 kPa | –
307.18 K | – | 0.00784 kPa
309.12 K | 0.00541 kPa and 0.0054 kPa | –
309.17 K | – | 0.00932 kPa
311.05 K | 0.00664 kPa | –
311.16 K | – | 0.01099 kPa
313.09 K | 0.00818 kPa | –
313.12 K | – | 0.01288 kPa
315.08 K | 0.01002 kPa | –
315.09 K | – | 0.01516 kPa
316.89 K | – | 0.01755 kPa
317.09 K | 0.01219 kPa | –
318.6 K | – | 0.02013 kPa
319.01 K | 0.01482 kPa | –
320.72 K | – | 0.02383 kPa
320.99 K | 0.01805 kPa | –
323.03 K | 0.02185 kPa | 0.02842 kPa
324.98 K | 0.02644 kPa | –
325.02 K | – | 0.03304 kPa
326.97 K | 0.03198 kPa | 0.03827 kPa
328.93 K | 0.03838 kPa | –
328.95 K | – | 0.04429 kPa
330.89 K | – | 0.05121 kPa
330.93 K | 0.0461 kPa | –
332.9 K | – | 0.05904 kPa
334.9 K | – | 0.06804 kPa
336.81 K | – | 0.07806 kPa
338.78 K | – | 0.0882 kPa
340.82 K | – | 0.1022 kPa
342.8 K | – | 0.1163 kPa
344.73 K | – | 0.132 kPa
346.82 K | – | 0.1517 kPa
348.66 K | – | 0.1712 kPa
350.78 K | – | 0.1945 kPa
352.64 K | – | 0.2188 kPa
354.73 K | – | 0.2475 kPa
356.58 K | – | 0.2774 kPa
358.68 K | – | 0.3129 kPa
360.5 K | – | 0.3497 kPa
362.61 K | – | 0.3938 kPa
364.5 K | – | 0.4391 kPa
366.58 K | – | 0.4925 kPa
368.3 K | – | 0.549 kPa
370.51 K | – | 0.6102 kPa

Conditions | Molar enthalpy of transition or fusion [kcal/mol]
[2] | 4.04

Oc1ccc(F)cc1 [4-fluorophenol]
vapor or sublimation pressure [kPa], [1]
Conditions | Crystal | Liquid
265.62 K | 0.00084 | –
267.58 K | 0.00108 | –
269.54 K | 0.00137 | –
271.5 K | 0.00174 | –
273.49 K | 0.00222 | –
275.43 K | 0.00279 | –
277.43 K | 0.00353 | –
279.39 K | 0.00443 | –
281.38 K | 0.00555 | –
283.36 K | 0.00696 | –
285.33 K | 0.00863 | –
287.34 K | 0.01071 | –
289.29 K | 0.01329 | –
291.3 K | 0.01648 | –
291.39 K | – | 0.02895
293.29 K | 0.02028 | –
293.35 K | – | 0.03339
295.26 K | 0.02476 | –
295.34 K | – | 0.0394
297.24 K | 0.03044 | –
297.32 K | – | 0.04637
299.25 K | 0.03741 | 0.05448
301.19 K | 0.04503 | –
301.24 K | – | 0.06387
303.21 K | 0.05518 | –
303.22 K | – | 0.07471
305.19 K | 0.06658 | –
305.24 K | – | 0.08751
307.18 K | 0.08105 | –
307.21 K | – | 0.1019
309.16 K | 0.09599 | –
309.2 K | – | 0.1187
311.12 K | 0.1152 | –
311.17 K | – | 0.1369
313.11 K | 0.1383 | –
313.15 K | – | 0.1588
315.06 K | – | 0.1811
315.1 K | 0.1647 | –
317.01 K | – | 0.2084
317.07 K | 0.197 | –
319.02 K | – | 0.2365
321.01 K | – | 0.2738
323.1 K | – | 0.3152
325.09 K | – | 0.3611
327.06 K | – | 0.4129
329.05 K | – | 0.4644
331.02 K | – | 0.5332
333.01 K | – | 0.5995
335 K | – | 0.6828
336.96 K | – | 0.7646
338.93 K | – | 0.8651
340.78 K | – | 0.9558
342.84 K | – | 1.084

Conditions | Normal melting temperature [°C]
[1], Crystal | 47.2

Conditions | Molar enthalpy of transition or fusion [kcal/mol]
[2] | 3.47

Oc1ccc(I)cc1 [4-iodophenol]
vapor or sublimation pressure [kPa], [1]
Conditions | Crystal | Liquid
307.15 K | 0.00064 | –
309.13 K | 0.00079 | –
311.09 K | 0.00098 | –
313.1 K | 0.00123 | –
315.1 K | 0.00152 | –
317.05 K | 0.00189 | –
319.1 K | 0.00236 | –
321.01 K | 0.00288 | –
323.01 K | 0.00353 | –
325.06 K | 0.00436 | –
326.95 K | 0.00527 | –
329.02 K | 0.00647 | –
330.91 K | 0.00781 | –
332.98 K | 0.00956 | –
334.88 K | 0.01147 | –
336.93 K | – | 0.02432
336.95 K | 0.01399 | –
338.83 K | 0.01662 | –
338.84 K | – | 0.02795
340.71 K | – | 0.03222
340.9 K | 0.02012 | –
342.72 K | – | 0.03713
342.79 K | 0.02397 | –
344.73 K | – | 0.04253
344.86 K | 0.02883 | –
346.71 K | 0.03411 | –
346.73 K | – | 0.04894
348.71 K | – | 0.05593
348.82 K | 0.04092 | –
350.67 K | 0.0482 | –
350.69 K | – | 0.06373
352.67 K | – | 0.07262
352.76 K | 0.05731 | –
354.59 K | 0.06713 | –
354.62 K | – | 0.08281
356.58 K | – | 0.09387
356.72 K | 0.07984 | –
358.58 K | 0.09351 | 0.1065
360.56 K | – | 0.1204
360.65 K | 0.1108 | –
362.52 K | – | 0.1359
364.52 K | – | 0.1533
366.46 K | – | 0.1729
368.57 K | – | 0.1961
370.44 K | – | 0.2178
372.51 K | – | 0.2463
374.38 K | – | 0.2725
376.46 K | – | 0.3075
378.32 K | – | 0.3409
380.41 K | – | 0.382

Conditions | Normal melting temperature [°C]
[1], Crystal | 92.7

Conditions | Molar enthalpy of transition or fusion [kcal/mol]
[2] | 4.97
